Data from patent publication US11702427B2 (priority 2018, dated 2023).
pEC50: −log10 of the molar value. Read-outs that look alike come from different tables or passages of the source.

Test system: HBsAg
Assay: HBsAg assay: inhibition of HBsAg in HepG2.2.15 cells (CLIA immunoassay of supernatant)
Assay type: cell-based, hepatitis B virus (HBV)
Conditions: supernatant collected at day 6 after exposure, HBsAg chemiluminescence immunoassay
Procedure: Inhibition of HBsAg was determined in HepG2.2.15 cells. Cells were maintained in culture medium containing 10% fetal calf serum, […], Glutamine, penicillin/streptomycin. Cells were seeded in 96-well collagen-coated plate at a density of 30,000 cells/well. Serially diluted compounds were added to cells next day at the final DMSO concentration of 0.5%. Cells were incubated with compounds for 2-3 days, after which medium was removed. Fresh medium containing compounds was added to cells for additional 3-4 days. At day 6 after exposure of compounds, supernatant was collected, the HBsAg immunoassay (microplate-based chemiluminescence immunoassay kits, CLIA, Autobio Diagnosics Co., Zhengzhou, China, Catalog #CL0310-2) was used to determine the level of HBsAg according to manufactory instruction. Dose-response curves were generated and the EC50 value (effective concentrations that achieved 50% inhibitory effect) were determined using XLfit software. In addition, cells can be seeded at a density of 5,000 cells/well for determination of cell viability in the presence and absence of compounds by using CellTiter-Glo reagent (Promega). Tables 1-3 show EC50 values obtained by the HBsAg assay for selected compounds.

[1] = read-out: sAg EC50, HepG2.2.15 cells
[2] = Hepatitis B virus, HepG2.2.15, 144 h, read-out: sAg EC50, HepG2.2.15 cells

SMILES | pEC50 [1] | pEC50 [2]
COCCCOc1cc2c(nc1OC)-c1[nH]c(=O)c(C(=O)O)c(O)c1C(C(C)(C)C)C2 (single isomer, unassigned) [Example 38, 5-(tert-Butyl)-4-hydroxy-9-methoxy-8-(3-methoxypropoxy)-2-oxo-1,2,5,6-tetrahydro-1,10-phenanthroline-3-carboxylic acid] | 7.46 | 
COCCCOc1cc2c(cc1OC)-c1[nH]c(=O)c(C(=O)O)c(O)c1C(C)(C(C)C)C2 (single isomer, unassigned) [Example 31, 4-Hydroxy-5-isopropyl-9-methoxy-8-(3-methoxypropoxy)-5-methyl-2-oxo-1,2,5,6-tetrahydrobenzo[h]quinoline-3-carboxylic acid] | 7.57 | 
COCCCOc1cc2c(nc1OC)-c1[nH]c(=O)c(C(=O)O)cc1C(C(C)(C)C)C2 (centres unmarked) [Example 46, 5-(tert-Butyl)-9-methoxy-8-(3-methoxypropoxy)-2-oxo-1,2,5,6-tetrahydro-1,10-phenanthroline-3-carboxylicacid] |  | 9.00
COCCCOc1cc2c(nc1OC)-c1[nH]c(=O)c(C(=O)NO)c(O)c1C(C(C)(C)C)C2 (centres unmarked) [Example 65, 5-(tert-Butyl)-N,4-dihydroxy-9-methoxy-8-(3-methoxypropoxy)-2-oxo-1,2,5,6-tetrahydro-1,10-phenanthroline-3-carboxamide] |  | 8.70
COCCCOc1cc2c(cc1Cl)-c1[nH]c(=O)c(C(=O)O)cc1C(C)(C(C)C)C2 (centres unmarked) [Example 9, 9-Chloro-5-isopropyl-8-(3-methoxypropoxy)-5-methyl-2-oxo-1,6-dihydrobenzo[h]quinoline-3-carboxylic acid] |  | 7.51
COCCCOc1cc2c(nc1Cl)-c1[nH]c(=O)c(C(=O)O)c(O)c1C(C(C)C)CO2 (centres unmarked) [Example 74, 2-Chloro-8-hydroxy-7-isopropyl-3-(3-methoxypropoxy)-10-oxo-6,7,10,11-tetrahydrooxepino[3,2-b:4,5-b′]dipyridine-9-carboxylic acid] |  | 7.40
COCCCOc1cc2c(nc1OC)-c1[nH]c(=O)c(C(=O)O)c(O)c1C(C(C)(C)C)C2 (centres unmarked) [Example 36, 5-(tert-Butyl)-4-hydroxy-9-methoxy-8-(3-methoxypropoxy)-2-oxo-1,2,5,6-tetrahydro-1,10-phenanthroline-3-carboxylicacid] |  | 9.00
CCOc1c2c([nH]c(=O)c1C(=O)O)-c1cc(OC)c(OCCCOC)cc1CC2C(C)C (centres unmarked) [Example 91, 4-Ethoxy-5-isopropyl-9-methoxy-8-(3-methoxypropoxy)-2-oxo-1,2,5,6-tetrahydrobenzo[h]quinoline-3-carboxylicacid] |  | 5.77
COCCCOc1cc2c(nc1OC)-c1[nH]c(=O)c(C(=O)O)cc1C(C(C)C)C2 (centres unmarked) [Example 43, 5-Isopropyl-9-methoxy-8-(3-methoxypropoxy)-2-oxo-1,2,5,6-tetrahydro-1,10-phenanthroline-3-carboxylic acid] |  | 8.52
COCCCOc1cc2c(cc1OC)-c1[nH]c(=O)c(C(=O)O)c(OCCOC)c1C(C(C)C)C2 (centres unmarked) [Example 88, 5-Isopropyl-9-methoxy-4-(2-methoxyethoxy)-8-(3-methoxypropoxy)-2-oxo-1,2,5,6-tetrahydrobenzo[h]quinoline-3-carboxylic acid] |  | 5.33
COCCCOc1cc2c(nc1OC)-c1[nH]c(=O)c(C(=O)O)cc1C(C(C)C)C2 (single isomer, unassigned) [Example 45, 5-Isopropyl-9-methoxy-8-(3-methoxypropoxy)-2-oxo-1,2,5,6-tetrahydro-1,10-phenanthroline-3-carboxylic acid] | 7.80 | 
COCCCOc1cc2c(cc1Cl)-c1[nH]c(=O)c(C(=O)O)c(O)c1C(C)(C(C)C)C2 (centres unmarked) [Example 14, 9-Chloro-4-hydroxy-5-isopropyl-8-(3-methoxypropoxy)-5-methyl-2-oxo-1,2,5,6-tetrahydrobenzo[h]quinoline-3-carboxylic acid] |  | 7.21
COCCCOc1cc2c(nc1OC)-c1[nH]c(=O)c(C(=O)O)cc1C(C(C)(C)C)C2 (single isomer, unassigned) [Example 47, 5-(tert-Butyl)-9-methoxy-8-(3-methoxypropoxy)-2-oxo-1,2,5,6-tetrahydro-1,10-phenanthroline-3-carboxylic acid] | 9.00 | 
CCOc1nc2c(cc1OCCCOC)CC(C(C)C)c1c-2[nH]c(=O)c(C(=O)O)c1O (centres unmarked) [Example 39, 9-Ethoxy-4-hydroxy-5-isopropyl-8-(3-methoxypropoxy)-2-oxo-1,2,5,6-tetrahydro-1,10-phenanthroline-3-carboxylicacid] |  | 8.70
COCCCOc1cc2c(cc1OC)-c1[nH]c(=O)cc(O)c1C(C(C)C)C2 (centres unmarked) [Example 22, 4-Hydroxy-5-isopropyl-9-methoxy-8-(3-methoxypropoxy)-5,6-dihydrobenzo[h]quinolin-2(1H)-one] |  | 6.47
COCCCOc1cc2c(nc1OC)-c1[nH]c(=O)c(C(=O)NO)cc1C(C(C)(C)C)C2 (centres unmarked) [Example 67, 5-(tert-Butyl)-N-hydroxy-9-methoxy-8-(3-methoxypropoxy)-2-oxo-1,2,5,6-tetrahydro-1,10-phenanthroline-3-carboxamide] |  | 8.30
COCCCOc1cc2c(nc1Cl)-c1c(cc(C(=O)O)c(=O)n1C)C(C(C)C)C2 (centres unmarked) [Example 25, 9-Chloro-5-isopropyl-8-(3-methoxypropoxy)-1-methyl-2-oxo-1,2,5,6-tetrahydro-1,10-phenanthroline-3-carboxylic acid] |  | 7.03
COCCCOc1cc2c(nc1C1CCOCC1)-c1[nH]c(=O)c(C(=O)O)c(O)c1C(C(C)C)CO2 (centres unmarked) [Example 79, 8-Hydroxy-7-isopropyl-3-(3-methoxypropoxy)-10-oxo-2-(tetrahydro-2H-pyran-4-yl)-6,7,10,11-tetrahydrooxepino[3,2-b:4,5-b′]dipyridine-9-carboxylic acid] |  | 5.30
COCCCOc1cc2c(cc1OC)-c1[nH]c(=O)c(C(=O)O)cc1C(C)(C(C)C)C2 (centres unmarked) [Example 6, 5-Isopropyl-9-methoxy-8-(3-methoxypropoxy)-5-methyl-2-oxo-1,6-dihydrobenzo[h]quinoline-3-carboxylic acid] |  | 7.36
COCCCOc1cc2c(nc1OC)-c1[nH]c(=O)c(C(=O)O)c(O)c1C(C(C)C)C2 (centres unmarked) [Example 33, 4-Hydroxy-5-isopropyl-9-methoxy-8-(3-methoxypropoxy)-2-oxo-1,2,5,6-tetrahydro-1,10-phenanthroline-3-carboxylic acid] |  | 8.40
COCCCOc1cc2c(nc1OC)-c1[nH]c(=O)c(C(=O)O)c(O)c1C(C(C)C)C2 (single isomer, unassigned) [Example 34, 4-Hydroxy-5-isopropyl-9-methoxy-8-(3-methoxypropoxy)-2-oxo-1,2,5,6-tetrahydro-1,10-phenanthroline-3-carboxylic acid] | 8.52 | 
COCCCOc1cc2c(nc1OC)-c1[nH]c(=O)c(C(N)=O)c(O)c1C(C(C)(C)C)C2 (centres unmarked) [Example 59, 5-(tert-Butyl)-4-hydroxy-9-methoxy-8-(3-methoxypropoxy)-2-oxo-1,2,5,6-tetrahydro-1,10-phenanthroline-3-carboxamide] |  | 8.52
COCCCOc1cc2c(nc1NCCOC)-c1[nH]c(=O)c(C(=O)NCCOC)c(O)c1C(C(C)C)C2 (centres unmarked) [Example 52, 4-Hydroxy-5-isopropyl-N-(2-methoxyethyl)-9-((2-methoxyethyl)amino)-8-(3-methoxypropoxy)-2-oxo-1,2,5,6-tetrahydro-1,10-phenanthroline-3-carboxamide] |  | 4.89
COCCCOc1cc2c(cc1Cl)-c1[nH]c(=O)c(C(=O)O)cc1[C@H](C(C)C)CO2 [Example 69, (S)-10-Chloro-5-isopropyl-9-(3-methoxypropoxy)-2-oxo-1,2,5,6-tetrahydrobenzo[2,3]oxepino[4,5-b]pyridine-3-carboxylicacid] |  | 6.70
COCCCOc1cc2c(nc1Cl)-c1[nH]c(=O)c(C(=O)O)c(O)c1C(C(C)C)C2 (centres unmarked) [Example 26, 9-Chloro-4-hydroxy-5-isopropyl-8-(3-methoxypropoxy)-2-oxo-1,2,5,6-tetrahydro-1,10-phenanthroline-3-carboxylic acid] |  | 8.52
CNc1nc2c(cc1OCCCOC)CC(C(C)C)c1c-2[nH]c(=O)c(C(=O)O)c1O (centres unmarked) [Example 53, 4-Hydroxy-5-isopropyl-8-(3-methoxypropoxy)-9-(methylamino)-2-oxo-1,2,5,6-tetrahydro-1,10-phenanthroline-3-carboxylic acid] |  | 7.82
CNc1nc2c(cc1OCCCOC)CC(C(C)C)c1cc(C(=O)O)c(=O)[nH]c1-2 (centres unmarked) [Example 55, 5-Isopropyl-8-(3-methoxypropoxy)-9-(methylamino)-2-oxo-1,2,5,6-tetrahydro-1,10-phenanthroline-3-carboxylicacid] |  | 8.70
COCCCOc1cc2c(cc1COC)-c1[nH]c(=O)c(C(=O)O)c(O)c1[C@H](C(C)C)CO2 [Example 71, (S)-4-Hydroxy-5-isopropyl-10-(methoxymethyl)-9-(3-methoxypropoxy)-2-oxo-1,2,5,6-tetrahydrobenzo[2,3]oxepino[4,5-b]pyridine-3-carboxylicacid] |  | 6.55
COCCCOc1cc2c(nc1OC)-c1[nH]c(=O)c(C(=O)O)cc1C(C(C)(C)C)C2 (single isomer, unassigned) [Example 48, 5-(tert-Butyl)-9-methoxy-8-(3-methoxypropoxy)-2-oxo-1,2,5,6-tetrahydro-1,10-phenanthroline-3-carboxylic acid] | 7.38 | 
